Measurements taken from US5079239A, “Sterol disulfates and methods of use” (Harbor Branch Oceanographic Institution, Inc., priority 1990, dated 1992).
≈ marks a conversion by molar mass, not a printed value. Read-outs that look alike come from different tables or passages of the source.

Columns and labels:
[1] = tested on: P388; assay: Standard P388 assay (tumor cell growth inhibition); type: cell-based
From the text: HB100 has also been tested to determine its activity in inhibiting the growth of tumor cells.

[2] = tested on: feline leukemia virus (FeLV); assay: Feline leukemia virus (FeLV) antiviral drug test; type: cell-based; conditions: for EC50: Feline leukemia virus; for TI: in vitro therapeutic index, ratio of IC50/EC50, FeLV; for activity against the feline leukemia virus: result in words, Tables 1 through 3
From the text: Feline leukemia viruses belong to the retrovirus family. Diseases caused by members of this family in cats have clinical manifestations similar to symptoms observed in humans with diseases caused by the human immunodeficiency viruses. Feline leukemia virus was selected as a representative member of the retrovirus family to use as a model for drug testing to search for compounds effective in preventing viral infection and replication. Cell lines were provided by Hansen Veterinary Immunology, and reagents and protocols for the ELISA assay can be purchased from the same company.
(§1) Antiviral activity on crude extracts is expressed by percent antiviral activity or by using the minus and plus values stated above. The EC50 of an antiviral drug represents the concentration of drug that results in 50% reduction of the viral cytopathic effect and the IC50 represents the concentration resulting in 50% growth inhibition. These values are determined from graphs constructed from the raw data. The in vitro therapeutic index (TI) is the ratio of IC50 /EC50.

[3] = tested on: CRFK cells; assay: Toxicity for CRFK cells (neutral red or MTT assay), FeLV test; type: cell-based
Procedure: A. Determination of Toxicity of Samples for CRFK Cells with Neutral Red Assay or MTT Assay
This assay is a modification of a procedure provided in detail by Dr. Ellen Borenfreund from Rockefeller University. Borenfreund, E., and J. A. Puerner (1984) "A Simple Quantitative Procedure Using Monolayer Cultures for Cytotoxicity Assays (HTD/NR-90)," J. Tissue Culture Methods 9:7-9.
b. MTT is diluted in D-MEM maintenance medium at a concentration of 1 mg per ml. For the toxicity test 75 microliters are added to each well of a 96-well plate without removing any medium. The plates are incubated for 6 hours at 37° C. At the end of the incubation period the medium is removed. If the cell layer is adherent, plates are not centrifuged to bring the cells down. CRFK is an adherent cell line, and for the MTT assay, no centrifugation is required. To each well 200 microliters of isopropyl alcohol are added. The formazan crystals are dissolved. After mixing, the plates are read with a plate reader at a wavelength of 570 nm. Toxicity percentages are determined the same as for neutral red.
as §1

[4] = tested on: mouse coronavirus A59 (MHV-A59); assay: Antiviral assay for mouse coronavirus A59 (CPE); type: cell-based, mouse hepatitis virus strain MHV-A59; parameters: key to activity: +++: complete inhibition of CPE and cell fusion; ++: partial inhibition; +: partial inhibition; +/-: partial inhibition; -: no protection
Procedure: (§2) The antiviral assay for A59 is a cytopathic test (CPE). Susceptible cells are infected with the virus at a dose that infects most of the cells and produces CPE. The characteristic CPE observed is the formation of syncytia. Compounds and extracts which inhibit the CPE are referred to as active samples.
(§3) 1. NCTC clone 1469 is a derivative of mouse liver.
1. Mouse hepatitis virus strain MHV-A59 classified as a coronavirus.
1. Dilute drug or extract for test in the appropriate solvent.
2. Add 20 μl per tube or well.
3. Allow the solvent to evaporate under the laminar flow hood.
4. Dilute the MHV-A59 in Dulbecco's phosphate buffered saline with Ca^++ and Mg^++ to the appropriate predetermined dilution for the lot number currently in use.
5. Remove medium from wells of 24 well plate containing NCTC 1469 cells seeded 24 hours earlier.
6. Medium can be removed by pouring the fluid from the plate and blotting it on a sterile towel.
7. Add 200 lambda of diluted virus to each test well. Add PBS to control wells.
8. Incubate cells and virus for 1 hour at 37° C.
9. Pour off supernatant at end of incubation period.
10. To each glass tube add 10 lambda of dimethyl sulfoxide (DMSO). The purpose for the DMSO is to solubilize the drug. If it is known that the drug under test is water soluble, then the DMSO is not necessary. However, in cases of testing unknown compounds, DMSO may be added, but DMSO causes some toxicity. Since differences have been noted with and without DMSO, the preferred technique is to test the sample under both conditions.
11. Add 1 ml of maintenance medium to each glass tube.
12. Pour the contents of the glass tube into the corresponding well of the tissue culture plate.
13. Incubate infected cells at 37° C. and read the following day.
14. At 12 hours, areas of cell fusion are quite apparent and can be detected both visually and microscopically.
15. […]
To assist in visual interpretation of the data, the antiviral activity is scored from a minus to a three plus based on the percentage of inhibition of viral cytopathic effects. […]

[5] = Cytotoxicity scoring in coronavirus A59 assay; type: cell-based; conditions: mouse, nctc 1469 cells, read-out: toxicity
From the text: as §2, §3
100%=complete cell destruction
75%=partial cell destruction
50%=partial cell destruction
25%=partial cell destruction

[6] = tested on: human immunodeficiency virus (HIV); assay: HIV (AIDS virus) antiviral assay; type: cell-based
Procedure: as §1

[7] = tested on: murine splenocytes; assay: Two-way mixed lymphocyte reaction (MLR); type: cell-based, mouse (BALB/c and C57BL/6J)
Procedure: The pure compound was tested in the two-way mixed lymphocyte reaction (MLR) and a lymphocyte viability assay (LCV) at 500, 50, 5, and 0.5 μg/ml, using murine splenocytes. Cellular proliferation was measured using incorporation of ^3 H-thymidine. Responses were reported as a percent of the positive MLR or LCV control.
1. Murine splenocyte suspensions were prepared separately from BALB/c and C57BL/6J mice. Spleens were aseptically removed and homogenized in RPMI 1640 tissue culture medium (TCM), supplemented with 10% fetal calf serum, 2% 1-glutamine, 15 mM HEPES, 1% antibiotic-antimycotic solution, and 25 μg/ml gentamycin (GIBCO). The cell concentrations were adjusted to 2.5×10^6 cells/ml. Aliquots of each cell population were removed to separate tubes, and the remaining two cell suspensions combined to one tube.
2. Serial, log10 dilutions of the pure compound were made in absolute ethanol, and 10 μl of each dilution were added to wells of microtiter test plates, and allowed to dry.
3. A volume of 0.2 ml of the combined splenocyte suspensions was added to triplicate test wells. Positive control wells received combined splenocyte suspensions in the absence of the test compounds. Negative control wells consisted of separate (not mixed) splenocyte suspensions cultured in the absence of the test compounds.
4. Plates were incubated in 5% CO2 at 37° C. for 86 hours.
5. A volume of 0.05 ml of ^3 H-thymidine (20 (μCi/ml) was added to each well, and the plates incubated in 5% CO2 at 37° C. for an additional 5 hours.
6. The contents of each well of the microtiter plates were harvested onto glass fiber filter strips, and the resulting filter discs placed in scintillation vials to which 2.0 ml of scintillation fluid was added.
7. The amount of incorporated ^3 H-thymidine was determined by counting the vials in a liquid scintillation counter.
8. Triplicate counts were averaged, and the data reported as a percentage of the positive control.

[8] = 50% growth inhibition (toxicity) in HIV assay; type: cell-based
Procedure: as §1

[9] = FeLV assay, 50% growth inhibition, molar value, read-out: IC50 (in parentheses)

For `CC(CCC1(C(C)C)CC1C)C1C(O)CC2C3CCC4CC(OS(=O)(=O)O)C(OS(=O)(=O)O)CC4(C)C3CCC21CO` (stereo not drawn) [HB100], the IC50 ([1]; Mus musculus, standard P388 assay) was 0.1 µg/mL (≈ 0.157 µM), the “inhibition of growth of tumor cells” value ([1]; result in words) was “inhibit the growth of tumor cells” and the EC50 [2] was 26 µg/mL (≈ 40.8 µM). The TI [2] was 7.1, the “activity against the feline leukemia virus” value [2] was “showed activity against the feline leukemia virus” and the IC50 [3] was 185 µg/mL. The IC50 [3, 9] was 272 µM.
In the case of `CCCC12OC3CC4C5CCC6CC(OS(=O)(=O)O)C(OS(=O)(=O)O)CC6(C)C5CCC4(C)C3C(C)(O1)C(CC1(C(C)C)CC1C)O2` (stereo not drawn) [HB124], the EC50 [2] is reported as 6.25 µg/mL (≈ 8.87 µM), the TI [2] is reported as over 8 and the “activity against the feline leukemia virus” value [2] is reported as “showed activity against the feline leukemia virus”. For the same compound, the activity ([4]; 2 μg) was “-”, the activity ([4]; 20 μg) was “++” and the “inhibition of viral growth” value ([4]; 20 μg, result in words) was “significantly inhibit viral growth”. It also gave an IC50 [3] of over 50 µg/mL, an IC50 [3, 9] of over 68 µM and a cytotoxicity ([5]; 2 μg) of 0%. For the same compound, the cytotoxicity ([5]; 20 μg) was 25%.
For `CC(C)C1(CCC(C)(O)C2C(O)CC3C4CCC5CC(OS(=O)(=O)O)C(OS(=O)(=O)O)CC5(C)C4CCC32C)CC1C` (stereo not drawn) [HB99], the EC50 [2] was 20 µg/mL (≈ 31.4 µM), the TI [2] was 17.5 and the “activity against the feline leukemia virus” value [2] was “showed activity against the feline leukemia virus”. It also gave an IC50 [3] of 350 µg/mL, an IC50 [3, 9] of 514 µM and a TI ([6]; in vitro therapeutic index, ratio of IC50/EC50, HIV) of 70. The “activity against the AIDS virus” value ([6]; result in words) was “showed activity against the AIDS virus”, the activity at 0.05 µg/mL ([7]; Mus musculus, Splenocyte, 0.05 μg/ml, percent of positive control) was 126% and the activity at 5 µg/mL ([7]; Mus musculus, Splenocyte, 5.00 μg/ml, percent of positive control) was 98%. The activity at 50 µg/mL ([7]; Mus musculus, Splenocyte, 50.00 μg/ml, percent of positive control) was 19%, the activity at 500 µg/mL ([7]; Mus musculus, Splenocyte, 500.00 μg/ml, percent of positive control) was 0% and the “immunosuppressive activity (MLR <100% and LCV >70%)” value ([7]; at 50 μg/ml and 5 μg/ml, result in words) was “exhibited immunosuppressive activity”. The IC50 [8] was 350 µg/mL (≈ 550 µM).
